Assay results reported in PubChem BioAssay (NCI).
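Each compound was tested at five concentrations against cells in 96-well plates for 48 hours. TGI: total growth inhibition.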

Assays:
Assay in all cases: growth of human tumour cells (NCI), 48 h
K-562 leukemia = tested on: K-562 leukemia
SW-620 colon = tested on: SW-620 colon
OVCAR-3 ovarian = tested on: OVCAR-3 ovarian
SNB-75 CNS = tested on: SNB-75 CNS
SF-268 CNS = tested on: SF-268 CNS
SR leukemia = tested on: SR leukemia
MOLT-4 leukemia = tested on: MOLT-4 leukemia
M14 melanoma = tested on: M14 melanoma
UACC-62 melanoma = tested on: UACC-62 melanoma
A498 renal = tested on: A498 renal
OVCAR-8 ovarian = tested on: OVCAR-8 ovarian

| Structure (SMILES) | TGI (K-562 leukemia) [µM] | TGI (SW-620 colon) [µM] | TGI (OVCAR-3 ovarian) [µM] | TGI (SNB-75 CNS) [µM] | TGI (SF-268 CNS) [µM] | TGI (SR leukemia) [µM] | TGI (MOLT-4 leukemia) [µM] | TGI (M14 melanoma) [µM] | TGI (UACC-62 melanoma) [µM] | TGI (A498 renal) [µM] | TGI (OVCAR-8 ovarian) [µM] |
| --- | --- | --- | --- | --- | --- | --- | --- | --- | --- | --- | --- |
| Nn1c(Cc2ccccc2)n[nH]c1=O | > 100 | > 100 | > 100 | > 100 | > 100 | > 100 | > 100 | > 100 | > 100 | > 100 | > 100 |
| CS(=O)(=O)OCCCOS(C)(=O)=O | > 100 | > 100 | > 100 | > 100 | > 100 | > 100 | > 100 | > 100 | > 100 | > 100 | > 100 |
| C(=C\c1cc(-c2ccc3ccccc3n2)nc2ccc3ccccc3c12)/c1ccc2ccccc2n1 | > 100 | > 100 | > 100 | 97.9 | > 100 | > 100 | > 100 | > 100 | > 100 | > 100 | > 100 |
| CCOC(=O)Cn1c(=O)c2cc(-c3ccccc3)cc3c(Cl)nc4c(OC)c(OC)cc1c4c32 | > 55 | > 61.2 | 60.1 | 49.6 | 29.2 | > 100 | 14.2 | 32.9 | 30.4 | 59.6 | 44.4 |
| c1ccc(-c2cc(-c3cccs3)c(-c3cccs3)o2)cc1 | > 100 | > 100 | > 100 | > 100 | > 100 | > 100 | > 100 | > 100 | > 100 | > 100 | > 100 |
| Clc1c(C(Cl)(Cl)Cl)nsc1N1CCCCC1 | 53.2 | > 100 | 56.9 | 81.8 | > 100 | 36.5 | 37.3 | 56.4 | > 100 | 46.1 | 71 |
